# Test results as given in PubChem BioAssay (NCI).
#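 Cultured in 96-well plates, cells were exposed to test compound for 48 hours across five concentrations. At the TGI there is no net growth.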 Where a SMILES comes first, the peptide text is derived from it. The star is where a group is joined. Boc = CC(C)(C)OC(=O)*; OBn = c1ccc(CO*)cc1
# What was measured:
# Assay in all cases: NCI tumour cell line growth inhibition, 48 h
# [1] = system: A549 NSCLC
# [2] = system: COLO 205 colon
# [3] = system: SW-620 colon
# [4] = system: SN12C renal
# [5] = system: T-47D breast
# [6] = system: SK-MEL-5 melanoma
# [7] = system: 786-0 renal
# [8] = system: SF-295 CNS
# [9] = system: HOP-92 NSCLC
# [10] = system: HS 578T breast
Structure (SMILES),TGI [1] [µM],TGI [2] [µM],TGI [3] [µM],TGI [4] [µM],TGI [5] [µM],TGI [6] [µM],TGI [7] [µM],TGI [8] [µM],TGI [9] [µM],TGI [10] [µM]
COc1ccc(C2(O)c3ccccc3C(=O)N(C)C2(O)c2ccc(OC)cc2)cc1 (stereo not given),> 100,60.1,> 100,> 100,> 100,> 100,> 100,> 100,> 100,29
Nc1ncnc2c1cnn2Cc1cn(COCC(O)CO)nn1 (stereo not given),> 100,> 100,> 100,> 100,> 100,> 100,> 100,> 100,> 100,32.8
NNCCc1n[nH]c(=O)n1N,> 100,> 100,> 100,> 100,> 100,> 100,> 100,> 100,> 100,> 100
CC(NC(=O)C(Cc1ccccc1)NC(=O)C(Cc1ccccc1)NC(=O)OC(C)(C)C)C(=O)OCc1ccccc1 (stereo not drawn) (Boc-Phe-Phe-Ala-OBn; configuration not given here),> 100,> 100,> 100,> 100,> 100,> 100,> 100,> 100,81.2,> 100
O=C1CCCCC/C1=C\c1ccc(Cl)cc1,> 100,40.8,61.2,> 100,> 100,35.2,> 100,56.6,98,57.8
c1ccc2cc(CNCCOCCOCCNCc3ccc4ccccc4c3)ccc2c1,3.46,3.01,4.62,4.18,4.95,5.66,2.97,3.11,3.14,3.74
NC(=O)NC(=O)c1cccc(NC(=O)CF)c1,> 100,> 100,> 100,> 100,> 100,> 100,> 100,> 100,> 100,> 100
Cc1ccc2c(c1)-c1c(C#N)c(N)nc(-c3ccccc3)c1CCS2(=O)=O,> 100,> 56.3,> 100,> 100,> 100,> 24,> 100,> 100,> 100,> 47.6
CC(C)CCc1n[nH]c(=O)n1/N=C\c1ccccc1,> 100,> 100,> 100,> 100,> 100,> 100,> 100,> 100,> 100,> 100
O=C(Cc1ccccc1)NCCCN(CCCCN(CCCNC(=O)Cc1ccccc1)C(=O)OCc1ccccc1)C(=O)OCc1ccccc1,> 100,> 100,> 100,> 100,> 100,> 100,> 100,> 100,> 100,> 100
O=c1oc2c(ccc3ccccc32)cc1C1=CSC2=NCCN12,> 100,> 100,> 100,> 100,> 100,> 100,> 100,> 100,84.3,> 100
CC1=N[C@](C)(C2CC3C=CC2C3=O)COC1=O (stereo not given in full),> 100,> 100,> 100,> 100,> 100,> 100,> 100,> 100,> 100,> 100
O=C(O)CC1OCC=C2CN3CCC45C6=CC(=O)C(=O)C([N+](=O)[O-])=C6NC4C1C2CC35 (stereo not given),> 100,> 100,> 100,> 100,> 100,> 100,> 100,> 100,> 100,> 100
O=C(/C=C/c1ccccc1)CSc1nc2ccc(I)cc2c(=O)n1Cc1ccccc1,> 100,> 67.8,> 100,30.8,> 100,99.3,35.9,> 70.6,55.2,67.7
O=S(=O)(O)c1ccc2c(N=Nc3ccc(F)cc3)c(O)c(S(=O)(=O)O)cc2c1,> 100,> 100,> 100,> 100,> 100,> 100,> 100,> 100,> 100,> 100
CC(C)(C)OC(=O)N/N=C(/N)Cc1ccccc1,> 100,> 100,> 100,> 100,> 100,> 100,> 100,> 100,> 100,> 100

Structure (SMILES),TGI [1] [µM],TGI [2] [µM],TGI [3] [µM],TGI [4] [µM],TGI [5] [µM],TGI [6] [µM],TGI [7] [µM],TGI [8] [µM],TGI [9] [µM],TGI [10] [µM]
O=c1[nH]c(-c2ccccc2)nc2c1sc1nc3ccccc3n12,> 100,> 100,> 100,> 100,> 100,> 100,> 100,> 100,> 100,82.5
CC(C)(C)OC(=O)N(CCNS(=O)(=O)c1cccc2cnccc12)CCC(=O)ON1C(=O)CCC1=O,> 100,> 100,> 100,> 100,> 100,> 100,> 100,> 100,> 100,> 100
O=C(O)CC1(CC(=O)O)Nc2ccccc2SC1=O,> 100,> 100,> 100,> 100,> 100,> 100,> 100,> 100,> 100,> 100
O=C1/C(=C/c2ccccc2)CCC/C1=C\c1ccc(O)c(CN2CCCCC2)c1,36.4,15.4,5.94,9.53,17.6,9.62,3.4,13,15.4,15.1
c1ccc(C2OCC(OC3CCCCO3)CO2)cc1 (stereo not given),> 100,> 100,> 100,> 100,> 100,> 100,> 100,> 100,> 100,> 100
C/C(=N\NC(=S)NC(C)(C)C)c1ccccn1,> 38.4,> 100,> 100,> 88.5,34.9,> 40,98.4,> 100,9.47,> 100
O=C1Nc2ccccc2/C1=C/c1c(Cl)[nH]c2ccc(O)cc12,> 37.8,6.4,20.7,5.22,28.3,9.54,25.9,> 25.5,45,> 100
COc1cccc2c1C(=O)c1ccc3cc(CCl)cc(O)c3c1C2=O,1.36,0.467,0.293,0.334,1.73,1.19,0.432,2.23,1.73,2.32
Cn1cnc(N2CCCC2)c(C#N)c1=O,> 100,> 100,> 100,> 100,> 100,> 100,> 100,> 100,> 100,> 100
CCOc1ccc(NCC2CC/C(=C\c3ccc(O)cc3)C2=O)cc1 (stereo not given),48.6,28.6,27.1,35.6,62.2,33.8,18,> 54.6,30,73.7
O=C1C(=C(I)I)c2ccccc2-c2ccccc21,34.7,3.66,8.13,4.31,> 100,19.7,4.33,31.8,5.66,19.6
CC(=O)N(CN1C(=O)CCC1C(=O)O)c1cccc(O)c1 (stereo not given),> 100,> 100,> 100,> 100,> 100,> 100,> 100,> 100,> 100,> 100
Cn1c(=O)c2c(ncn2CCCCOc2ccc3c(c2)[n+]([O-])nc(N)[n+]3[O-])n(C)c1=O,> 100,43.2,> 100,> 100,12.1,22.1,> 100,> 100,33.4,> 100
Nc1nc(N)c2[nH]cnc2n1 (tested in a mixture with another compound),47.4,> 100,> 100,> 100,40,85.3,> 100,> 100,> 100,> 100
COC1=CC(=O)c2c(O)c3c(c(O)c2C1=O)C=C(C)OC3O (stereo not given),4.35,0.746,2.84,2.08,7.05,0.66,10.9,5.06,20.9,7.9
CC(C)/C(Cl)=N\OC(=O)Nc1ccc(F)cc1F,34.6,3.52,3.31,21.1,47.3,27.4,13.3,28.3,3.61,52.7
